From US10040781B2, “Tank-binding kinase inhibitor compounds” (Gilead Sciences, Inc., priority 2014, dated 2018)

Key:
[1] = biological target: IKKε (Homo sapiens (Human), UniProt Q14164); assay: IKKε TR-FRET enzymatic assay; type: biochemical; conditions: read-out: IKKe IC50
[2] = biological target: TBK1 (Homo sapiens (Human), UniProt Q9UHD2); assay: TBK1 TR-FRET enzymatic assay;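 further: phosphorylation of a biotinylated Ser/Thr peptide by purified full-length recombinant TBK1, read by TR-FRET after 240 min at 25 °C, IC50 is the geometric mean of at least four runs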
[3] = biological target: hJAK2 (Homo sapiens (Human), UniProt O60674); assay: hJAK2 LANCE TR-FRET enzymatic assay; type: biochemical; conditions: read-out: JAK2 IC50
hJAK2, sequence (O60674 whole entry): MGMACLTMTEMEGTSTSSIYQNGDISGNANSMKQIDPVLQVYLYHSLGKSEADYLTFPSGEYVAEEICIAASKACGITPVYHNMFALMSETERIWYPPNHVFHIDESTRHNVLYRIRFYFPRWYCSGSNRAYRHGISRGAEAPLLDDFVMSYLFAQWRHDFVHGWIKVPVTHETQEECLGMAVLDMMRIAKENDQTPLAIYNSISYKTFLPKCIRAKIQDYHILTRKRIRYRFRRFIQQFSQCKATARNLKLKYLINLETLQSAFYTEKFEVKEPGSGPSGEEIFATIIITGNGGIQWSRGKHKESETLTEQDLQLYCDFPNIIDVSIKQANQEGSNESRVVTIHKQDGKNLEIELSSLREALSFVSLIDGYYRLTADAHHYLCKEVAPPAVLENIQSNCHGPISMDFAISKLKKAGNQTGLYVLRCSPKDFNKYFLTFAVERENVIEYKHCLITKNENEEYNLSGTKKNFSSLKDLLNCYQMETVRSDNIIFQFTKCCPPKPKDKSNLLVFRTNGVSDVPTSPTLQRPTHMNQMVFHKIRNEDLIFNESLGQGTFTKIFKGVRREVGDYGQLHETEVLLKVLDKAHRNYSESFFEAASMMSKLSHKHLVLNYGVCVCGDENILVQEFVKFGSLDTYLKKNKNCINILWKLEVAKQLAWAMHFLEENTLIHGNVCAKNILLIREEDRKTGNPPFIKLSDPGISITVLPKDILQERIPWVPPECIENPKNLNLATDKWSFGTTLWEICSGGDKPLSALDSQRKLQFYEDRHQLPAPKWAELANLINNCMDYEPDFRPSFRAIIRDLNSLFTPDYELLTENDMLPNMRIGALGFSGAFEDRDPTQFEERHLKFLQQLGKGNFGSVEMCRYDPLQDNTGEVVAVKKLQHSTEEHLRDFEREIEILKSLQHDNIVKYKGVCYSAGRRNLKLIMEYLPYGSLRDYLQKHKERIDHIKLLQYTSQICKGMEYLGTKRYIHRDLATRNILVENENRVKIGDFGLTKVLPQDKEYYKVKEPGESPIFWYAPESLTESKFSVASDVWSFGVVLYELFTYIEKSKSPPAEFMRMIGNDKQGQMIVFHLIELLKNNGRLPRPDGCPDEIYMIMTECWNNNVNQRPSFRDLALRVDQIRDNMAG

IKKε, sequence (Q14164 whole entry): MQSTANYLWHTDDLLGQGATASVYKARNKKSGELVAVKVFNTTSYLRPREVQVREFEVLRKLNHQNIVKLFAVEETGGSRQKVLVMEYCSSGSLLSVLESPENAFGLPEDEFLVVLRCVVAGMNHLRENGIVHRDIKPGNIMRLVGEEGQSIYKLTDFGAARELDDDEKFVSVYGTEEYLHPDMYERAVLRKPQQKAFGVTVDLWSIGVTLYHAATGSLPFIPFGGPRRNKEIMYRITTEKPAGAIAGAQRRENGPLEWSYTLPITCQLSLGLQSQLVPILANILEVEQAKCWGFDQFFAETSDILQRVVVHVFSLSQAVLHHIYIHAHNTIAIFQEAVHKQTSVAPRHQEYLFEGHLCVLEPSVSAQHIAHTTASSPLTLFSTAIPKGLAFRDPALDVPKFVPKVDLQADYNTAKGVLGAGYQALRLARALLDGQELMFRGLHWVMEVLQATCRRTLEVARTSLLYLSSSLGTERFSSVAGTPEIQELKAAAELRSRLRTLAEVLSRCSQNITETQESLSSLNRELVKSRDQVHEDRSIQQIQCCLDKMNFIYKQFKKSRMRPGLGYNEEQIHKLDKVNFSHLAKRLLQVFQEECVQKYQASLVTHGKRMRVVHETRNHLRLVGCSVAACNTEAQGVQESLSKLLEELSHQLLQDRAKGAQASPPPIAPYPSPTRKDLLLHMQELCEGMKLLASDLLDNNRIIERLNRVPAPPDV
TBK1, sequence (Q9UHD2 whole entry): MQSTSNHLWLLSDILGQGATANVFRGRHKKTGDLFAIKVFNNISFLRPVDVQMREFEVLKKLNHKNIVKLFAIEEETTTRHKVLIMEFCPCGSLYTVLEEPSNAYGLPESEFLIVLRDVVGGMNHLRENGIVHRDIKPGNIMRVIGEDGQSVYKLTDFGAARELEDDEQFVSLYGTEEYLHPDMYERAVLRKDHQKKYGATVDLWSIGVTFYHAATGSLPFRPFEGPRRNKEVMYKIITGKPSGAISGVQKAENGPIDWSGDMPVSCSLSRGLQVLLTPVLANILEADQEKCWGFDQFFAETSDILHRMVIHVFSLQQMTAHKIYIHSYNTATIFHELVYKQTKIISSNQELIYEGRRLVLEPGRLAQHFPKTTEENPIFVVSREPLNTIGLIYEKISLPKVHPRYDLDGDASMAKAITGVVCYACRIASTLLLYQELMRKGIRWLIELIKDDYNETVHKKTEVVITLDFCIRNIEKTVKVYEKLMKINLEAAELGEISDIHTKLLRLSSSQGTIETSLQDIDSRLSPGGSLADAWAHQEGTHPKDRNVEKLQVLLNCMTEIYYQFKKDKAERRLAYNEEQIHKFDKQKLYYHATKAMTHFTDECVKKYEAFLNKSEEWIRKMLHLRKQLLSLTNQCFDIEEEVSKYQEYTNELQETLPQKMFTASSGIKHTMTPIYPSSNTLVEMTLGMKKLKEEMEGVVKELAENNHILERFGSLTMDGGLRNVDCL

SMILES	IC50 [1] [nM]	IC50 [2] [nM]	IC50 [3] [nM]
C[C@H](O)C(=O)N1CC[C@H](Oc2ccc(-c3ncnc(Nc4ccc([C@H]5CCCN5)cc4)n3)cc2C#N)[C@H](F)C1 [Example 615, 2-(((3R,4S)-3-fluoro-1-((S)-2-hydroxypropanoyl)piperidin-4-yl)oxy)-5-(4-((4-((R)-pyrrolidin-2-yl)phenyl)amino)-1,3,5-triazin-2-yl)benzonitrile]	1	4	≥ 1000
C[C@H](O)C(=O)N1CC[C@H](Oc2ccc(-c3ncnc(Nc4ccc([C@H]5CCCN5C5COC5)cc4)n3)cc2C#N)[C@H](F)C1 [Example 616, 2-(((3R,4S)-3-fluoro-1-((S)-2-hydroxypropanoyl)piperidin-4-yl)oxy)-5-(4-((4-((R)-1-(oxetan-3-yl)pyrrolidin-2-yl)phenyl)amino)-1,3,5-triazin-2-yl)benzonitrile]	4	5	≥ 1000
COC[C@@H](O)C(=O)N1CC[C@H](Oc2ccc(-c3ncnc(Nc4ccc(N5CCN(C6COC6)CC5)cc4)n3)cc2C#N)[C@H](F)C1 [Example 617, 2-(((3R,4S)-3-fluoro-1-((R)-2-hydroxy-3-methoxypropanoyl)piperidin-4-yl)oxy)-5-(4-((4-(4-(oxetan-3-yl)piperazin-1-yl)phenyl)amino)-1,3,5-triazin-2-yl)benzonitrile]	75	29	226
COC[C@H](O)C(=O)N1CC[C@H](Oc2ccc(-c3ncnc(Nc4ccc(N5CCN(C6COC6)CC5)cc4)n3)cc2C#N)[C@H](F)C1 [Example 618, 2-(((3R,4S)-3-fluoro-1-((S)-2-hydroxy-3-methoxypropanoyl)piperidin-4-yl)oxy)-5-(4-((4-(4-(oxetan-3-yl)piperazin-1-yl)phenyl)amino)-1,3,5-triazin-2-yl)benzonitrile]	1	2	162
